Drawing on patent US9809602B2, “Compounds for treating viral infections” (INSTITUT PASTEUR KOREA, priority 2014, dated 2017), this text covers EC50 for 66 compounds.

The first experiment deals with genotype 1/2 chimeric cell culture derived HCV (HCVcc). Kind of experiment: Genotype 1/2 chimeric HCVcc assay (nano-luciferase, HCV replication). In kind it is cell-based. The following applies: Hepatitis C virus. On the procedure:
Naïve Huh-7.5 target cells were plated at 2400 cells/well in 25 μL of culture media in 384-well plates (Greiner bio-one, μ clear black). After overnight incubation, compounds serially diluted in 10 μL of cell culture media were added. After 2 h compound treatment, cells were inoculated with 40 μL of genotype 1/2 chimeric cell culture derived HCV (HCVcc) which express structural proteins of an HCV genotype 1a isolate (TN accession number EF621489) and non-structural proteins of HCV genotype 2a (JFH-1) with nano-luciferase reporter. At 72 h post infection, nano-luciferase activity (Nano-Glo™, Promega) and cellular ATP (Cell titer-Glo™, Promega) were measured as a marker for HCV replication and cytotoxicity, respectively. EC50 and CC50 were calculated by non-linear regression analyzing using GraphPad Prism (GraphPad Software).
As to `O=C(NC1CC(N2CCC(N3CCCCC3)CC2)C1)c1ccc(Oc2ccccc2)cc1` (stereo not drawn) [Compound 1059], the EC50 was 1000 to 10000 nM. `O=C(NCCCN1CCC(N2CCCCC2)CC1)c1ccc(-c2ccc(F)cc2C(F)(F)F)cc1` [Compound 1133] gave an EC50 of 100 to 1000 nM.

For the compound `O=C(CCCN1CCC(N2CCCCC2)CC1)Nc1ccc(-c2ccc(C(F)(F)F)cc2)nc1` [Compound 1116], the concentration for a half-maximal effect (EC50) was 100 to 1000 nM.

Take `O=C(NCCCN1CCN(C(=O)C2CCCCC2)CC1)c1ccc(Oc2ccccc2)cc1` [Compound 1038]: the EC50 was > 10000 nM. Compound `O=C(NCCCN1CCC(N2CCCCC2)CC1)c1ccc(-c2cccc(Cl)c2)cc1` [Compound 1141] returned an EC50 of 100 to 1000 nM. Compound `COc1cc(NC(=O)CCCN2CCC(N3CCCCC3)CC2)ccc1-c1ccc(C(F)(F)F)cc1` [Compound 1157] yielded an EC50 of 100 to 1000 nM. Consider `O=C(NCCCN1CCC(N2CCCCC2)CC1)c1ccc(Nc2ccccc2)cc1` [Compound 1070], for which the EC50 was 1000 to 10000 nM. `O=C(NCCCN1CCN(Cc2ccccc2)CC1)c1ccc(Oc2ccccc2)cc1` [Compound 1036] displayed an EC50 of 1000 to 10000 nM. Compound `O=C(NCCCN1CCC(N2CCCCC2)CC1)c1ccc(-c2cccs2)cc1` [Compound 1023] yielded a 50% effective concentration (EC50) of 100 to 1000 nM. `CC(C)(C)c1ccc(-c2ccc(C(=O)NCCCN3CCC(N4CCCCC4)CC3)cc2)cc1` [Compound 1124]: the EC50 fell in the range of 100 to 1000 nM.

With `O=C(NCCCN1CCC(N2CCCCC2)CC1)c1ccc(-c2ccc(C(F)(F)F)cc2)cc1Cl` [Compound 1112], the EC50 fell in the range of 100 to 1000 nM. With `COc1cccc(Oc2ccc(C(=O)NCCCN3CCC(N4CCCCC4)CC3)cc2)c1` [Compound 1064], the EC50 was > 10000 nM. On to `O=C(NCCCOc1ccc(N2CCCCC2)cc1)c1ccc(Oc2ccccc2)cc1` [Compound 1051], for which the EC50 was > 10000 nM. Still for that read-out and setting: the same measure for `O=C(NCCCN1CCC(c2ccccc2)CC1)c1ccc(Oc2ccccc2)cc1` [Compound 1041]: 1000 to 10000 nM. Consider `CN(C)C(=O)c1ccc(-c2ccc(C(=O)NCCCN3CCC(N4CCCCC4)CC3)cc2)cc1` [Compound 1120], for which the EC50 was > 10000 nM. Regarding `O=C(NCCCN1CCC(N2CCCCC2)CC1)c1ccc(-c2ccc(C(F)(F)F)cn2)cc1` [Compound 1100], the EC50 lay within 100 to 1000 nM.

In turn, `O=C(NCCCN1CCC(C2CCCCC2)CC1)c1ccc(Oc2ccccc2)cc1` [Compound 1071] yielded an EC50 of 1000 to 10000 nM. Turning to `O=C(NCCCN1CCN(C2CCCCC2)CC1)c1ccc(Oc2ccccc2)cc1` [Compound 1037], the EC50 is > 10000 nM. The compound `O=C(c1ccc(C2CCCCC2)cc1)N1CCC(N2CCCCC2)CC1` [Compound 1007] returned a concentration giving a half-maximal response (EC50) of 1000 to 10000 nM. For the compound `CC(C)(C)OC(=O)c1ccc(-c2ccc(C(=O)NCCCN3CCC(N4CCCCC4)CC3)cc2)cc1` [Compound 1139], the EC50 fell in the range of 100 to 1000 nM.

The same experiment, now with this note: Hepatitis C virus, Huh7.5, 72 h.
As for `CCN1CCc2c(sc(Br)c2CNC(=O)Nc2sc3c(c2C(=O)OC(C)C)CCCC3)C1` [Compound 174], the EC50 is < 100 nM. As for `CC(C)(C)OC(=O)c1ccsc1NC(=O)NCc1c(C(F)(F)F)sc2c1CCNC2` [Compound 343], the EC50 was in the range of 100 to 1000 nM.

Regarding `CCOC(=O)c1c(NC(=O)NCc2c(-n3cccc3)sc3c2CCN(C)C3)sc2c1CCCC2` [Compound 67], the EC50 was < 100 nM. For `Cc1noc(-c2c(NC(=O)NCc3c(-n4cccc4)sc4c3CCNC4)sc3c2CCCC3)n1` [Compound 304], the EC50 was 100 to 1000 nM. With `CCN1CCc2c(sc(-n3cccc3)c2CNC(=O)Nc2sc3c(c2C(=O)NCCCCN)CCCC3)C1` [Compound 91], the EC50 fell in the range of 100 to 1000 nM. Take `CN1CCc2c(sc(C(F)(F)F)c2CNC(=O)Nc2sc3c(c2C(=O)OC(C)(C)C)CCC3)C1` [Compound 278]: the EC50 is < 100 nM. Turning to `Cc1nnc(-c2c(NC(=O)NCc3c(C(F)(F)F)sc4c3CCNC4)sc(C)c2C)o1` [Compound 149], the EC50 is < 100 nM. On the same count and under the same terms, for `CC(C)OC(=O)c1c(NC(=O)NCc2c(C(F)(F)F)sc3c2CCN(C)C3)sc2c1CCCC2` [Compound 169] the value was < 100 nM. Compound `CC(C)(C)OC(=O)c1c(NC(=O)NCc2c(-c3ccccc3F)sc3c2CCNC3)sc2c1CCCC2` [Compound 227] came in with an EC50 of 100 to 1000 nM. Take `CCOC(=O)c1c(NC(=O)NCc2c(-n3cccc3)sc(C(=O)N(C)C)c2C)sc2c1CCCC2` [Compound 52]: the EC50 was in the range of 100 to 1000 nM. For the compound `CCOC(=O)c1c(NC(=O)NCc2c(-n3cccc3)sc3c2CCNC3)sc2c1CCCC2` [Compound 61], the EC50 is < 100 nM. For `CCOC(=O)c1c(NC(=O)NCc2c(-n3cccc3)sc3c2CCN(Cc2ccc(OC)cc2)C3)sc2c1CCCC2` [Compound 18], the half-maximal effective concentration (EC50) was < 100 nM. For the compound `Cc1sc(NC(=O)NCc2c(-c3cccc(Cl)c3)sc3c2CCNC3)c(C(=O)OC(C)(C)C)c1C` [Compound 363], the concentration for a half-maximal effect (EC50) was < 100 nM.

Consider `CCOC(=O)c1c(NC(=O)NCc2c(-n3cccc3)sc3c2CCNC3)sc2c1CCC2` [Compound 112], for which the EC50 was < 100 nM. Consider `CCOC(=O)c1c(NC(=O)NCc2c(Br)sc3c2CCNC3)sc2c1C(C)CCC2` (stereo not drawn) [Compound 164], for which the EC50 is < 100 nM. On the same count and under the same terms, the same measure for `CC(C)(C)OC(=O)c1c(NC(=O)NCc2c(-c3ccc(F)cc3)sc3c2CCNC3)sc2c1CCCC2` [Compound 159]: < 100 nM; for `CN1CCc2c(sc(-n3cccc3)c2CNC(=O)Nc2sc3c(c2C(=O)OC(C)(C)C)CCCC3)C1` [Compound 68]: < 100 nM; for `CCN1CCc2c(sc(Br)c2CNC(=O)Nc2sc(C)c(C)c2C(=O)OC(C)C)C1` [Compound 264]: < 100 nM. As for `CCOC(=O)c1c(NC(=O)NCc2c(-c3ccco3)sc3c2CCNC3)sc2c1CCCC2` [Compound 338], the EC50 was < 100 nM.

As to `Cc1sc(NC(=O)NCc2c(C(F)(F)F)sc3c2CCNC3)c(C(=O)OC2CCOC2)c1C` (stereo not drawn) [Compound 350], the EC50 is < 100 nM. The compound `CCOC(=O)c1c(NC(=O)NCc2c(-c3ccccc3)sc3c2CCNC3)sc2c1CCCC2` [Compound 62] came in with an EC50 of 100 to 1000 nM. `CN1CCc2c(sc(C(F)(F)F)c2CNC(=O)Nc2sc3c(c2C(=O)OC(C)(C)C)CCCCC3)C1` [Compound 281]: the half-maximal effective concentration (EC50) is < 100 nM. Consider `Cc1sc(NC(=O)NCc2c(C(F)(F)F)sc3c2CCNC3)c(C(=O)OC(C)(C)C)c1C` [Compound 137], for which the EC50 was < 100 nM. Consider `CCOC(=O)c1c(NC(=O)NCc2c(C(F)(F)F)sc3c2CCNC3)sc2c1CCCC2` [Compound 96], for which the EC50 was < 100 nM. Consider `Cc1sc(NC(=O)NCc2c(-n3cccc3)sc3c2CCN(C)C3)c(C(=O)OC(C)(C)C)c1C` [Compound 69], for which the EC50 was < 100 nM. Take `CCN1CCc2c(sc(-n3cccc3)c2CNC(=O)Nc2sc3c(c2C(=O)OC(C)(C)C)C(C)CCC3)C1` (stereo not drawn) [Compound 292]: the EC50 is < 100 nM. On to `CCc1sc(NC(=O)NCc2c(-n3cccc3)sc3c2CCNC3)c(C(=O)OC(C)(C)C)c1C` [Compound 318], for which the EC50 is 100 to 1000 nM. Take `CCOC(=O)c1c(NC(=S)NCc2c(-n3cccc3)sc3c2CCN(CC)C3)sc2c1CCCC2` [Compound 44]: the EC50 is < 100 nM. In turn, `CCN1CCc2c(sc(-n3cccc3)c2C(C)(C)NC(=O)Nc2sc3c(c2C(=O)OC(C)(C)C)CCCC3)C1` [Compound 202] displayed a 50% effective concentration (EC50) of 1000 to 10000 nM. For `CCN1CCc2c(sc(-n3cccc3)c2CNC(=O)Nc2cccs2)C1` [Compound 15], the EC50 was > 10000 nM. `CN1CCc2c(sc(-n3cccc3)c2CNC(=O)Nc2sc3c(c2C(=O)OC2CCCC2)CCCC3)C1` [Compound 221]: the concentration for a half-maximal effect (EC50) is < 100 nM. `CC(C)(C)OC(=O)c1c(NC(=O)NCc2c(-c3cccc(Cl)c3)sc3c2CCNC3)sc2c1CCCC2` [Compound 180]: the EC50 is < 100 nM.

Regarding `CCN1CCc2c(sc(-n3cccc3)c2CNC(=O)Nc2sc3c(c2C(=O)OC(C)(C)C)CCOC3)C1` [Compound 237], the EC50 is < 100 nM.

`CCOC(=O)c1c(NC(=O)NCc2c(-n3cccc3)sc3c2CCN(CC)C3)sc2c1CCCCC2` [Compound 56]: the EC50 was < 100 nM. Take `CC1CCCc2sc(NC(=O)NCc3c(C(F)(F)F)sc4c3CCNC4)c(C(=O)OC(C)(C)C)c21` (stereo not drawn) [Compound 265]: the EC50 is < 100 nM.

Take `CCN1CCc2c(sc(C(F)(F)F)c2CNC(=O)Nc2sc3c(c2C(=O)OC)CCCC3)C1` [Compound 178]: the EC50 is < 100 nM. The compound `CCOC(=O)c1c(NC(=O)NCc2c(N3CCOCC3)sc3c2CCNC3)sc2c1CCCC2` [Compound 54] yielded an EC50 of 100 to 1000 nM. As for `CCN1CCc2c(sc(-n3cccc3)c2CNC(=O)Nc2sc3c(c2C(=O)OC(C)(C)C)CC(C)CC3C)C1` (stereo not drawn) [Compound 294], the EC50 is < 100 nM. As for `Cc1sc(NC(=O)C(=O)NCc2c(-n3cccc3)sc3c2CCNC3)c(C(=O)OC(C)(C)C)c1C` [Compound 361], the EC50 lay within 100 to 1000 nM. `Cc1sc(NC(=O)NCc2c(-n3c(C)ccc3C)sc3c2CCNC3)c(C(=O)OC2CCOC2)c1C` (stereo not drawn) [Compound 353] had an EC50 of 1000 to 10000 nM. Consider `O=C(NCc1c(-c2ccoc2)sc2c1CCNC2)Nc1sc2c(c1C(=O)OC1CCOC1)CCOC2` (stereo not drawn) [Compound 337], for which the EC50 is < 100 nM.

`CCN1CCc2c(sc(-n3cccc3)c2CNC(=O)Nc2nccs2)C1` [Compound 13]: the EC50 is > 10000 nM. In the case of `CC(C)(C)OC(=O)c1c(NC(=O)NCc2c(C(F)(F)F)sc3c2CCNC3)sc2c1CCCCC2` [Compound 245], the EC50 was < 100 nM.

For the compound `C=CCCOC(=O)c1c(NC(=O)NCc2c(C(F)(F)F)sc3c2CCNC3)sc2c1CCCC2` [Compound 275], the EC50 is < 100 nM. Regarding `CCN1CCc2c(sc(Br)c2CNC(=O)Nc2sc3c(c2C(=O)OC(C)(C)C)CCCC3)C1` [Compound 111], the 50% effective concentration (EC50) is < 100 nM. Take `CCOC(=O)c1c(NC(=O)NCc2c(-n3cccc3)sc3c2CCOC3)sc2c1CCCC2` [Compound 48]: the EC50 is < 100 nM.
